Experimental data from patent publication US20090130064A1, “DIFFERENTIATION OF STEM CELLS AND STABILIZATION OF PHENOTYPICAL PROPERTIES OF PRIMARY CELLS” (priority 2004, published 2009).

Tests used:
[1] = Biotransformation by rat liver microsomes; type: in vitro ADME; details: 140 μM TSA, 150 min
Method: Human liver specimens (n=3) were acquired from organ donors at the Academic Hospital of the VUB in accordance with the regulations of the local Medical Ethical Committee and immediately frozen in liquid nitrogen. While human liver microsomes were prepared from frozen liver tissue, rat livers (n=3) were freshly isolated for immediate microsome preparation. Microsomal 7-ethoxyresorufin-O-deethylase (EROD) [31]was used as a marker enzyme to evaluate the microsomal biotransformation activity before and after storage. Incubations were carried out in a 100 mM sodium potassium phosphate buffer pH 7.4 in the presence of a NADPH-generating system (0.5 mM NADP^+, 10 mM glucose 6-phosphate, 2 U/ml glucose 6-phosphate dehydrogenase and 0.6 mM MgCl2). Microsomes (0.0-2.0 mg microsomal protein/ml) were incubated with 140 μM substrate at 37° C. for 150 min. Boiled microsomes ([…]) served as a control. Biotransformation reactions were initiated by addition of substrate and, at selected time intervals, terminated by dilution with ice-cold acetonitrile (1:2.5).
After centrifugation (2000 g, 45 min, 4° C.) of the diluted microsomal samples, the clear supernatant was injected onto a HPLC column. Samples from incubations with hepatocytes were thawed on ice and centrifugated (120 g, 2 min). […]

[2] = system: cyclin D1; experiment: Western blotting of cyclin D1 in primary rat hepatocytes; type: cell-based; details: 50 μM; 72 hours
Source text: Male outbred Sprague-Dawley rats (200-300 g, Iffa Credo, Brussels, Belgium) were kept under controlled environmental conditions (12-hr light-dark cycle) and fed a standard diet (Animafabo A04, water ad libitum). Hepatocytes were isolated by a two-step collagenase perfusion as described (De Smet et al. In ‘Methods in Molecular Biology, Vol. 107: Cytochrome P450 Protocols’, Philips I R and Shephard E A, eds., pp 295-301, Humana Press, Totowa, 1998). Cell liability was >90% as determined by trypan blue exclusion. Cells (0.4×10^5 cells/cm^2) were plated in MEM/M199 (3:1), containing BSA (1 mg/ml), bovine insulin (10 μg/ml), L-glutamine (2 mM), FBS (10% v/v) and antibiotics (7.3 IU/ml benzyl penicillin, 50 μg/ml streptomycin sulphate, 50 μg/ml kanamycin monosulphstep and 10 μg/ml sodium ampicillin). Four hours after plating, serum-containing medium was removed and fresh serum-free medium was added to the cultures. Culture medium was refreshed daily. […]
Total cell extracts were prepared as described previously (Papeleu et al. J Hepatol 39: 374-382, 2003) and proteins (25 or 50 μg per lane) were separated electrophoretically by SDS-PAGE and electroblotted onto nitrocellulose membranes (Amersham Pharmacia Biotech, Buckinghamshire, UK). […] Proteins were detected using the ECL detection system (Amersham Pharmacia Biotech, Buckinghamshire, UK) according to the manufacturer's recommendations.

[3] = system: primary rat hepatocytes; experiment: Biotransformation in hepatocyte culture by HPLC with ESI-MS/UV; type: in vitro ADME; details: 50 μM; after 20 hours
Method: Cells were cultured for 24 hours in the presence of EGF, alone or in combination with 4-Me2N-BAVAH; culture media were renewed and the expression of p21 was subsequently analyzed at short time intervals (0.5, 1, 6 and 24 hours) (FIG. 18B). In untreated EGF-stimulated hepatocytes, cyclin D1 and p21 proteins were induced 0.5 hour after medium renewal. A maximum was reached 24 hours later, namely after 48 hours of culture. As expected, no cyclin D1 and p21 proteins could be detected in 4-Me2N-BAVAH-treated cells, not even after short exposure periods (FIG. 18B). In addition, we quantified the biotransformation rate of 4-Me2N-BAVAH using high-performance liquid chromatography (HPLC) combined with simultaneous electrospray ionization mass spectrometric (ESI-MS)/UV detection. […] These findings clearly indicate that 4-Me2N-BAVAH interferes with the mitogenic effects of EGF resulting in a failure to induce cyclin D1 and p21 expression.

| SMILES | biotransformation in microsome suspensions [1] | cyclin D1 protein accumulation upon growth factor stimulation [2] | metabolites detected in culture [3] |
| --- | --- | --- | --- |
| CC(C=CC(=O)NO)=CC(C)C(=O)c1ccc(N(C)C)cc1 (stereo not drawn) [TSA] | slow and incomplete biotransformation |  |  |
| CN(C)c1ccc(C(=O)NCCCCC(=O)NO)cc1 [4-Me2N-BAVAH, 5-(4-dimethylaminobenzoyl)-aminovaleric acid hydroxamide] |  | completely failed to accumulate cyclin D1 protein | No metabolites of the compound could be detected |
